Where two headings read alike, the source gives them in different places.
Target: T1, mitochondrial calcium/sodium antiporter (Rattus norvegicus, UniProt Q6AXS0)
T1 sequence (Q6AXS0 1-585): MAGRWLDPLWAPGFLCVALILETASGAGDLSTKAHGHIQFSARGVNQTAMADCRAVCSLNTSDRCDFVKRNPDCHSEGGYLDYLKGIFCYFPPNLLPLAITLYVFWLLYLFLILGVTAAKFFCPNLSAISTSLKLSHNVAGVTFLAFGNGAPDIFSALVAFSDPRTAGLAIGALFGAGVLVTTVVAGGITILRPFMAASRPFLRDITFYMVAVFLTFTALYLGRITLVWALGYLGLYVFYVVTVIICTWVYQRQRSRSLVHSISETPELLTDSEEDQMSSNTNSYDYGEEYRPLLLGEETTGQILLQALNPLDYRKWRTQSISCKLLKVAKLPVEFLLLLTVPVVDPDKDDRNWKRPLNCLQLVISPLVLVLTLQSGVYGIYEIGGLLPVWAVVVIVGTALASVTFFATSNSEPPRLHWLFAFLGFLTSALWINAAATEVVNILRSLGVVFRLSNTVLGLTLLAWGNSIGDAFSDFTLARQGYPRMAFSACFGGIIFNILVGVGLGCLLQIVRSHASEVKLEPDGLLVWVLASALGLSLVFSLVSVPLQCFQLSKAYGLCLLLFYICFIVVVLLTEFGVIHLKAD
Test: Inhibition of mitochondrial calcium/sodium antiporter activity (NaCl-induced mitochondrial calcium efflux, calcium green 5N fluorescence)
Assay type: cell-based
Settings: digitonin-permeabilized INS-1 cells, 20 mM NaCl
Experimental: INS-1 rat insulinoma cells (see Example 16) were harvested by trypsinization, washed and resuspended at 10×10^6 cells/ml in assay buffer (250 mM sucrose, 10 mM HEPES, 2.5 mM K2HPO4, 5 mM succinate, pH 7.4) containing 0.007% digitonin, 60 μM CaCl2 and 0.05 μM calcium green 5N (Molecular Probes, Inc., Eugene, Oreg.). After a five-minute calcium loading incubation, ruthenium red (1 μM; Sigma, St. Louis, Mo.) was added to block further calcium uptake by mitochondria. Cell suspensions were dispensed into 96-well plates (100 μl per well, 1×10^6 cells per well) and candidate agents (i.e., candidate mitochondrial calcium/sodium antiporter inhibitors) were added to some sets of triplicate wells at concentrations of 1, 10 or 100 μM, while other sets of wells provided appropriate control conditions (e.g., buffer and vehicle controls). Baseline fluorescence measurements were made using a multiwell plate fluorimeter (F-MAX™, Molecular Devices Corp., Sunnyvale, Calif.; or PolarStar™, BMG Labtechnologies, Inc., Durham, N.C.) according to the manufacturer's instructions. Calcium efflux from mitochondria was then induced by adding NaCl to all wells to achieve a final concentration of 20 mM, and the rate of change in fluorescence in each well was monitored […] for two minutes and quantified using software included with the plate reader.

[1] = Table 2, preferred compounds, read-out: IC50 ≦ 10 μM
[2] = Table 3, more preferred compounds, read-out: IC50 ≦ 1 μM

Compound	IC50 [1]	IC50 [2]
COC(=O)CSC(c1ccccc1C)c1cc(Cl)ccc1N (centres unmarked) [Compound 11aa]	≤ 10 µM	≤ 1 µM
COC(=O)CSC(c1cc(Cl)ccc1N)C1CCCCC1 (centres unmarked) [Compound 11ak]		≤ 1 µM
COC(=O)CSC(CC(C)C)c1cc(Cl)ccc1N (centres unmarked) [Compound 11am]	≤ 10 µM	
COC(=O)CSC(CCCOCc1ccccc1)c1cc(Cl)ccc1N (centres unmarked) [Compound 11an]	≤ 10 µM	
COC(=O)CSC(c1cc(Cl)ccc1NC(=O)C(F)(F)F)c1c(C)cccc1C (centres unmarked) [Compound 11ba]	≤ 10 µM	≤ 1 µM
COC(=O)CSC(c1cc(Cl)ccc1N)c1sccc1C (centres unmarked) [Compound 11c]	≤ 10 µM	
COC(=O)CSC(c1cc(C)cc(C)c1)c1cc(Cl)ccc1N (centres unmarked) [Compound 11d]	≤ 10 µM	≤ 1 µM
COC(=O)CSC(c1nc2ccccc2s1)c1cc(Cl)ccc1N (centres unmarked) [Compound 11f]	≤ 10 µM	
COC(=O)CSC(c1cc(Cl)ccc1N)c1cccn1C (centres unmarked) [Compound 11h]	≤ 10 µM	≤ 1 µM
COC(=O)CSC(c1cccc(C)c1)c1cc(Cl)ccc1N (centres unmarked) [Compound 11i]	≤ 10 µM	
COC(=O)CSC(c1cc(Cl)ccc1N)c1cccc(C)c1C (centres unmarked) [Compound 11k]	≤ 10 µM	
COC(=O)CSC(c1ccc(C)c(C)c1)c1cc(Cl)ccc1N (centres unmarked) [Compound 11l]	≤ 10 µM	
COC(=O)CSC(c1cc(C)ccc1C)c1cc(Cl)ccc1N (centres unmarked) [Compound 11m]	≤ 10 µM	
COC(=O)CSC(c1ccccc1N)c1ccccc1Cl (centres unmarked) [Compound 11r]	≤ 10 µM	
COC(=O)CSC(c1cc(Cl)ccc1N)c1ccccc1Cl (centres unmarked) [Compound 11s]	≤ 10 µM	≤ 1 µM
COC(=O)CSC(c1ccccc1)c1cc([N+](=O)[O-])ccc1N (centres unmarked) [Compound 11t]	≤ 10 µM	
COC(=O)CSC(c1nccs1)c1cc(Cl)ccc1N (centres unmarked) [Compound 11u]	≤ 10 µM	
COC(=O)CSC(c1ccc(C)cc1C)c1cc(Cl)ccc1N (centres unmarked) [Compound 11w]	≤ 10 µM	
COC(=O)CSC(c1ccccc1)c1cc(Cl)ccc1N (centres unmarked) [Compound 11x]	≤ 10 µM	
CNC(=O)CSC(c1cc(Cl)ccc1N)c1ccccc1Cl (centres unmarked) [Compound 13a]	≤ 10 µM	
O=C(CSC(c1cc(Cl)ccc1O)c1ccccc1Cl)N1CCCCC1 (centres unmarked) [Compound 13ag]	≤ 10 µM	

Compound	IC50 [1]	IC50 [2]
O=C(CSC(c1ccccc1)c1cc(Cl)ccc1O)N1CCCCC1 (centres unmarked) [Compound 13ai]	≤ 10 µM	
CN(C)C(=O)CSC(c1cc(Cl)ccc1N)c1ccccc1Cl (centres unmarked) [Compound 13b]	≤ 10 µM	≤ 1 µM
Nc1ccc(Cl)cc1C(SCC(=O)NCCc1ccccc1)c1ccccc1Cl (centres unmarked) [Compound 13c]	≤ 10 µM	≤ 1 µM
Nc1ccc(Cl)cc1C(SCC(=O)N1CCCCC1)c1ccccc1Cl (centres unmarked) [Compound 13d]	≤ 10 µM	≤ 1 µM
Nc1ccc(Cl)cc1C(SCC(=O)NCCO)c1ccccc1Cl (centres unmarked) [Compound 13e]	≤ 10 µM	
Nc1ccc(Cl)cc1C(SCC(=O)NCc1ccccc1)c1ccccc1Cl (centres unmarked) [Compound 13f]	≤ 10 µM	≤ 1 µM
CC(=O)NCCNC(=O)CSC(c1cc(Cl)ccc1N)c1ccccc1Cl (centres unmarked) [Compound 13g]	≤ 10 µM	≤ 1 µM
Nc1ccc(Cl)cc1C(SCC(=O)NC1CCCCC1)c1ccccc1Cl (centres unmarked) [Compound 13h]	≤ 10 µM	≤ 1 µM
Nc1ccc(Cl)cc1C(SCC(=O)NCC(c1ccccc1)c1ccccc1)c1ccccc1Cl (centres unmarked) [Compound 13i]	≤ 10 µM	≤ 1 µM
Nc1ccc(Cl)cc1C(SCC(=O)N1CCN(c2ccccc2)CC1)c1ccccc1Cl (centres unmarked) [Compound 13j]	≤ 10 µM	≤ 1 µM
CCCNC(=O)CSC(c1cc(Cl)ccc1N)c1ccccc1Cl (centres unmarked) [Compound 13k]	≤ 10 µM	≤ 1 µM
CCCCCCNC(=O)CSC(c1cc(Cl)ccc1N)c1ccccc1Cl (centres unmarked) [Compound 13l]	≤ 10 µM	≤ 1 µM
COCCCNC(=O)CSC(c1cc(Cl)ccc1N)c1ccccc1Cl (centres unmarked) [Compound 13m]	≤ 10 µM	≤ 1 µM
Nc1ccc(Cl)cc1C(SCC(=O)NCC1CCCCC1)c1ccccc1Cl (centres unmarked) [Compound 13n]	≤ 10 µM	≤ 1 µM
C#CCNC(=O)CSC(c1cc(Cl)ccc1N)c1ccccc1Cl (centres unmarked) [Compound 13o]	≤ 10 µM	≤ 1 µM
Nc1ccc(Cl)cc1C(SCC(=O)NCCCn1ccnc1)c1ccccc1Cl (centres unmarked) [Compound 13p]	≤ 10 µM	≤ 1 µM
CN(C)CCCNC(=O)CSC(c1cc(Cl)ccc1N)c1ccccc1Cl (centres unmarked) [Compound 13q]	≤ 10 µM	
Nc1ccc(Cl)cc1C(SCC(=O)NC1CC1)c1ccccc1Cl (centres unmarked) [Compound 13r]	≤ 10 µM	≤ 1 µM
Nc1ccc(Cl)cc1C(SCC(=O)NCCc1ccc(O)cc1)c1ccccc1Cl (centres unmarked) [Compound 13s]	≤ 10 µM	≤ 1 µM
Nc1ccc(Cl)cc1C(SCC(=O)NCCc1ccc(O)c(I)c1)c1ccccc1Cl (centres unmarked) [Compound 13t]	≤ 10 µM	
Nc1ccc(Cl)cc1C(SCC(=O)NCCc1cc(I)c(O)c(I)c1)c1ccccc1Cl (centres unmarked) [Compound 13u]	≤ 10 µM	≤ 1 µM

Compound	IC50 [1]	IC50 [2]
NCCOCCOCCNC(=O)CSC(c1cc(Cl)ccc1N)c1ccccc1Cl (centres unmarked) [Compound 13v]	≤ 10 µM	≤ 1 µM
Nc1ccc(Cl)cc1C(SCc1nc(-c2ccc(F)cc2)no1)c1ccccc1Cl (centres unmarked) [Compound 14a]	≤ 10 µM	
Cc1noc(CSC(c2cc(Cl)ccc2N)c2ccccc2Cl)n1 (centres unmarked) [Compound 14b]	≤ 10 µM	≤ 1 µM
Cc1cc(C)cc(C(SCc2nc(C)no2)c2cc(Cl)ccc2N)c1 (centres unmarked) [Compound 14d]	≤ 10 µM	
Cc1noc(CSC(c2cccs2)c2cc(Cl)ccc2N)n1 (centres unmarked) [Compound 14g]	≤ 10 µM	≤ 1 µM
Cc1noc(CSC(c2cc(Cl)ccc2N)c2cccn2C)n1 (centres unmarked) [Compound 14h]	≤ 10 µM	≤ 1 µM
Cc1cccc(C(SCc2nc(C)no2)c2cc(Cl)ccc2N)c1 (centres unmarked) [Compound 14i]	≤ 10 µM	
Cc1noc(CSC(c2cc(Cl)ccc2N)c2cccc(C)c2C)n1 (centres unmarked) [Compound 14k]	≤ 10 µM	≤ 1 µM
Cc1noc(CSC(c2ccc(C)c(C)c2)c2cc(Cl)ccc2N)n1 (centres unmarked) [Compound 14l]	≤ 10 µM	
Cc1ccc(C)c(C(SCc2nc(C)no2)c2cc(Cl)ccc2N)c1 (centres unmarked) [Compound 14m]	≤ 10 µM	
Cc1ccc(C)c(C(SCc2nc(C)no2)c2cc(Cl)ccc2NC(=O)C(F)(F)F)c1 (centres unmarked) [Compound 14ma]	≤ 10 µM	
Cc1noc(CSC(c2ccccc2)c2cc([N+](=O)[O-])ccc2N)n1 (centres unmarked) [Compound 14t]	≤ 10 µM	
CCSC(c1cc(Cl)ccc1N)c1ccccc1Cl (centres unmarked) [Compound 15c]	≤ 10 µM	≤ 1 µM
Nc1ccc(Cl)cc1C(SCCO)c1ccccc1Cl (centres unmarked) [Compound 15d]	≤ 10 µM	≤ 1 µM
COC(=O)CCSC(c1cc(Cl)ccc1N)c1ccccc1Cl (centres unmarked) [Compound 15e]	≤ 10 µM	≤ 1 µM
Nc1ccc(Cl)cc1C(Sc1ccccn1)c1ccccc1Cl (centres unmarked) [Compound 15f]	≤ 10 µM	≤ 1 µM
Nc1ccc(Cl)cc1C(SCC(F)(F)F)c1ccccc1Cl (centres unmarked) [Compound 15i]	≤ 10 µM	≤ 1 µM
Nc1ccc(Cl)cc1C(SCCCO)c1ccccc1Cl (centres unmarked) [Compound 15k]	≤ 10 µM	≤ 1 µM
Nc1ccc(Cl)cc1C(SCCNC(=O)c1ccccc1)c1ccccc1Cl (centres unmarked) [Compound 16a]	≤ 10 µM	≤ 1 µM

Reference: US6958352B2, “Compounds for inhibiting insulin secretion and methods related thereto” (SmithKline Beecham Corporation, priority 2002, dated 2005)
